Patent publication US5541174A, “Analgesic method” (priority 1995, dated 1996)
Like-named read-outs stand apart in the source and are kept apart here.

What was measured:
[1] = system: acetic acid induced writhing in mice; assay: Acetic acid-induced writhing test; assay type: in vivo, ICR male mice
Procedure: 1. Acetic acid-induced writhing test as described in Koster et al., "Acetic Acid for Analgesic Screening", Fed. Proc. 18, 412 (1959), incorporated by reference herein; and
Groups of 10 ICR male mice (Taisho Pharmaceutical Co. Research Center) were used to study each dose of every compound. Ligands or complexes were administered orally or subcutaneously in 0.1 ml of vehicle per 10 g of body weight 30 minutes before the intrapertioneal injection of 0.1 ml of 0.7% acetic acid solution per 10 g of body weight. Number of writhes were counted for each mouse during a period of 10 to 20 min after acetic acid injection. Inhibitory percent was calculated by comparison with the number of writhes in the non-treated control, vehicle-treated, and acetic acid-injected group. The ED50 value and 95% confidence limits were calculated from the inhibitory percent by the method of Litchfield and Wilcoxon.

[2] = system: adjuvant-induced arthritic pain in rats; assay: Adjuvant-induced arthritic pain; assay type: in vivo, male Sprague-Dawley rats
Source text: 2. Adjuvant-induced arthritic pain as described in:
S. KUZNA, et al., Measurement of Arthritic Pain and Effects of Analgesics in the Adjuvant-Treated Rat, Chem. Pharm. Bull. 23, 1184-1191 (1975);
C. A. WINTER, et al., Analgesic Activity of Diflunisal in Rats with Hyperalygesia Induced by Freud's Adjuvant, J. Pharmacol. Exp. Ther. 211, 678-685 (1979; and
M. E. ROSENTHALE, et al., Adjuvant Arthritis:Immuno-Pathological and Hyperalgesic Features, Fed. Proced. 41, 2577-2582 (1982),
incorporated by reference herein.
Groups of 5-6 male Sprague-Dawley rats (Taisho Pharmaceutical Co. Research Center) weighing 140 to 160 g at the time of Mycobacterium butyricum (adjuvant, Difco Laboratories, Detroit, Mich.) injection were used to study each compound. Rats were injected intradermally at the base of the tail with 0.1 ml of a parafin oil suspension of 0.5 mg of heat-killed mycobacterium. Fifteen to 19 days later, drugs were administered orally or subcutaneously in 0.5 ml of vehicle per 100 g of body weight to rats showing the nociceptive reaction, vocalization following a gentle flexion of the tarsal-tibial joint of the inflamed hind-paw. Vocalization responses were measured every hour for 5 hours. […] The ED50 value and 95% confidence limits were calculated from the positive rate for non-treated controls, vehicle-treated adjuvant arthritic rats, by the method of Litchfield and Wilcoxin.
All drugs were suspended with 5% gum arabic in saline solution or wetted with enough propylene glycol to give a final concentration of 4% propylene glycol and the wetted solid suspended in 1.4% polyvinyl alcohol in saline.

[3] = oral, 5% gum arabic, 0.45 mmol/kg
[4] = oral, 5% gum arabic, 0.90 mmol/kg
[5] = oral, 5% gum arabic, 1.46 mmol/kg
[6] = oral, 5% gum arabic, 0.56 mmol/kg
[7] = oral, 5% gum arabic, 1.11 mmol/kg

With `CC(C)c1cc(C(=O)O)c(O)c(C(C)C)c1` [3,5-Dips, 3,5-diisopropylsalicylic acid, reference compound] the ED50 ([1]; oral, 5% gum arabic in saline) was 0.27 mmol/kg, the “% Inhibition” value [1, 3] was 66% and the “% Inhibition” value [1, 4] was 88%. For the same compound, the ED50 ([1]; oral, PG-PVA in saline) was 0.44 mmol/kg, the “% Inhibition” value ([1]; oral, PG-PVA, 0.45 mmol/kg) was 56% and the “% Inhibition” value ([1]; oral, PG-PVA, 0.90 mmol/kg) was 78%. For the same compound, the ED50 ([1]; s.c., PG-PVA in saline) was 0.23 mmol/kg, the “% Inhibition” value ([1]; s.c., PG-PVA, 0.11 mmol/kg) was 22% and the “% Inhibition” value ([1]; s.c., PG-PVA, 0.23 mmol/kg) was 49%. For the same compound, the “% Inhibition” value ([1]; s.c., PG-PVA, 0.45 mmol/kg) was 91%, the ED50 ([2]; oral, 5% gum arabic in saline) was 0.36 mmol/kg and the “% Inhibition” value ([2]; oral, 5% gum arabic, 0.22 mmol/kg) was 30%. For the same compound, the “% Inhibition” value [2, 3] was 53%, the “% Inhibition” value [2, 4] was 92% and the ED50 ([2]; oral, PG-PVA in saline) was greater than 0.90 mmol/kg. The “% Inhibition” value ([2]; oral, PG-PVA, 0.45 mmol/kg) was 27% and the “% Inhibition” value ([2]; oral, PG-PVA, 0.90 mmol/kg) was 43%.
With `Nc1ccccc1C(=O)O` [Anthranilic acid, reference compound] the ED50 ([1]; oral, 5% gum arabic in saline) was greater than 1.46 mmol/kg, the “% Inhibition” value [1, 5] was 18% and the ED50 ([1]; oral, PG-PVA in saline) was greater than 2.19 mmol/kg. For the same compound, the “% Inhibition” value ([1]; oral, PG-PVA, 2.19 mmol/kg) was 45%, the ED50 ([1]; s.c., PG-PVA in saline) was 0.64 mmol/kg and the “% Inhibition” value ([1]; s.c., PG-PVA, 0.27 mmol/kg) was 30%. The “% Inhibition” value ([1]; s.c., PG-PVA, 0.55 mmol/kg) was 36%, the “% Inhibition” value ([1]; s.c., PG-PVA, 1.09 mmol/kg) was 71% and the ED50 ([2]; oral, 5% gum arabic in saline) was 0.83 mmol/kg. The “% Inhibition” value ([2]; oral, 5% gum arabic, 0.36 mmol/kg) was 23%, the “% Inhibition” value ([2]; oral, 5% gum arabic, 0.73 mmol/kg) was 41% and the “% Inhibition” value [2, 5] was 73%. For the same compound, the ED50 ([2]; oral, PG-PVA in saline) was greater than 1.44 mmol/kg and the “% Inhibition” value ([2]; oral, PG-PVA, 1.46 mmol/kg) was 37%.
In the case of `CC(=O)Oc1ccccc1C(=O)O` [Aspirin, acetylsalicylic acid, reference compound], the ED50 ([1]; oral, 5% gum arabic in saline) is reported as 1.30 mmol/kg, the “% Inhibition” value [1, 6] is reported as 29% and the “% Inhibition” value [1, 7] is reported as 42%. The “% Inhibition” value ([1]; oral, 5% gum arabic, 2.22 mmol/kg) was 66%, the ED50 ([1]; oral, PG-PVA in saline) was 0.48 mmol/kg and the “% Inhibition” value ([1]; oral, PG-PVA, 0.21 mmol/kg) was 32%. For the same compound, the “% Inhibition” value ([1]; oral, PG-PVA, 0.42 mmol/kg) was 41%, the “% Inhibition” value ([1]; oral, PG-PVA, 0.84 mmol/kg) was 67% and the ED50 ([1]; s.c., PG-PVA in saline) was 0.52 mmol/kg. The “% Inhibition” value ([1]; s.c., PG-PVA, 0.28 mmol/kg) was 28%, the “% Inhibition” value ([1]; s.c., PG-PVA, 0.56 mmol/kg) was 57% and the “% Inhibition” value ([1]; s.c., PG-PVA, 1.11 mmol/kg) was 71%. For the same compound, the ED50 ([2]; oral, 5% gum arabic in saline) was 0.62 mmol/kg, the “% Inhibition” value ([2]; oral, 5% gum arabic, 0.28 mmol/kg) was 27% and the “% Inhibition” value [2, 6] was 43%. The “% Inhibition” value [2, 7] was 70%, the ED50 ([2]; oral, PG-PVA in saline) was 1.41 mmol/kg and the “% Inhibition” value ([2]; oral, PG-PVA, 0.56 mmol/kg) was 30%. The “% Inhibition” value ([2]; oral, PG-PVA, 1.11 mmol/kg) was 40% and the “% Inhibition” value ([2]; oral, PG-PVA, 2.22 mmol/kg) was 63%.
`NCC(=O)[O-].NCC(=O)[O-].[Cu+2]` [Cu(II)(glycinate)2] was tested, and the “activity versus other copper complexes and parent ligand” value ([1]; Table VI) was “less active than the other copper complexes”, the ED50 ([1]; oral, 5% gum arabic in saline) was greater than 1.89 mmol/kg and the “% Inhibition” value ([1]; oral, 5% gum arabic, 1.89 mmol/kg) was 48%.
In the case of `NCC(=O)O` [Glycine, reference compound], the ED50 ([1]; oral, 5% gum arabic in saline) is reported as greater than 5.33 mmol/kg and the “% Inhibition” value ([1]; oral, 5% gum arabic, 5.33 mmol/kg) is reported as 36%.
In the case of `C[C@H](N)C(=O)O` [L-alanine, reference compound], the ED50 ([1]; oral, 5% gum arabic in saline) is reported as greater than 4.49 mmol/kg and the “% Inhibition” value ([1]; oral, 5% gum arabic, 4.49 mmol/kg) is reported as 14%.
For `N[C@@H](CS)C(=O)O` [L-cysteine, reference compound], the ED50 ([1]; oral, 5% gum arabic in saline) was greater than 3.30 mmol/kg and the “% Inhibition” value ([1]; oral, 5% gum arabic, 3.30 mmol/kg) was -5%.
For `CN1CC[C@]23c4c5ccc(O)c4O[C@H]2[C@@H](O)C=C[C@H]3[C@H]1C5` [morphine, reference compound], the ED50 ([2]; Rattus norvegicus, sc, read-out: ED50 (AA)) was 0.002 mmol/kg, the “ED50 (AA)” value ([2]; s.c., hydrochloride salt in saline) was 0.002 mmol/kg and the “% Inhibition” value ([2]; s.c., hydrochloride salt in saline, 0.001 mmol/kg) was 20%. The “% Inhibition” value ([2]; s.c., hydrochloride salt in saline, 0.002 mmol/kg) was 40% and the “% Inhibition” value ([2]; s.c., hydrochloride salt in saline, 0.004 mmol/kg) was 60%.
